According to ChEMBL document CHEMBL2448809, “UCSF DeRisi Lab MMV Box Apicoplast Screening”:

Test system: Plasmodium falciparum
Assay: MMV: Compounds (1uM) were screened in a 72hr growth assay monitored by flow cytometry both in the presence and absence of supplemental isopentenyl pyrophosphate (IPP) 200uM. Compounds which fail to show anti-malarial activity when chemically rescued by IPP are therefore specific to the apicoplast. The values are expressed as the ratio of the corresponding activity with and without IPP, respectively.
Format: functional, W2

Compound	Ratio
O=C(NC1CCN(Cc2ccccc2)CC1)c1cc2nc(-c3ccc(Cl)s3)cc(C(F)(F)F)n2n1	0.6993
CC(C)(C)C(=O)Nc1ccc(C(=O)Nc2cccc(-c3nc4ccccc4[nH]3)c2)cc1	0.7684
Cc1c(C)n(CC(O)CNC2CCCCC2C)c2ccccc12 (stereo unspecified)	0.9649
Cc1ccccc1OCCSc1nc2ccc(NC(=O)c3ccccc3)cc2s1	0.8842
CN(N=O)C1=C(NC2CCCCC2)C(=O)c2ccccc2C1=O	1.071
O=C(Cc1ccccc1)NC(c1ccc(Cl)cc1)c1c(O)ccc2ccccc12 (stereo unspecified)	0.873
Cc1ccc(Nc2nc(NCCO)c3ccccc3n2)cc1C	0.8028
COc1cc(SC)ccc1C(=O)N1CCCC(C)C1 (stereo unspecified)	0.6888
CCN(CC)CCNc1ncnc2c1[nH]c1ccc(Br)cc12	0.9508
CCOc1ccc(-n2cc(-c3ccccc3)c3c(SCc4cc(C)ccc4C)ncnc32)cc1	0.9394
O=C(O)C(=O)O.Oc1ccccc1CN1CCN(C(c2ccccc2)c2ccccc2)CC1	1.068
Cc1cc(Nc2cccc(F)c2)nc(NCc2ccccc2)n1	0.8333
CCC1(C)CC(CCNCc2ccccc2O)(c2ccc(C)cc2)CCO1 (stereo unspecified)	0.8378
Cc1ccc(F)cc1NC(=O)c1cc(Cl)ccc1Nc1ccccc1	1.055
COc1cc(-c2nc(-c3ccc(Sc4ccccc4)cc3)c(-c3ccccc3)[nH]2)cc(OC)c1O	1.071
CCOc1ccc2c(c1)CN(Cc1ccc(Cl)cc1)CO2	0.8361
CCCCC(O)(c1ccc(Cl)cc1)C(CN1CCOCC1)c1ccc(Cl)cc1.Cl (stereo unspecified)	1.074
COc1ccc(C(=O)Nc2ccc(Cl)cc2C(=O)Nc2ccncc2)cc1	0.8104
CC(=O)c1ccc(NC(=O)CSc2nc(-c3ccccc3Cl)ns2)cc1	1.02
CCOC(=O)c1cnc2ccc(CC)cc2c1O	1
O=C(NC1CCN(Cc2ccccc2)CC1)c1cc(C(=O)NC2CCN(Cc3ccccc3)CC2)cc(C(=O)NC2CCN(Cc3ccccc3)CC2)c1	1.119
CCCCCC(=O)N1c2ccccc2N=C2CC(c3ccc(OC)c(OC)c3)CC(O)=C2C1c1ccc(C(F)(F)F)cc1 (stereo unspecified)	0.7792

Compound	Ratio
CCOC(=O)c1c(C)n(-c2ccc(Cl)cc2)c2ccc(OC(=O)C=Cc3ccccc3)cc12	1.121
CCn1nc(-c2ccc(C(=O)OC)cc2)nc2c(=O)n(C)c(=O)nc1-2	1.058
CCc1c(C)c(=N)c2ccccc2n1C.I	1.064
Cc1cc(C)c2c(c1)OCN(Cc1ccccc1Cl)C2	0.8871
CC(O)(c1ccc(Cl)cc1)C(CN1CCCCC1)c1ccccc1.Cl (stereo unspecified)	0.9286
COc1ccc(CNC2CCN(c3ccc(NC(=O)c4cccc(Cl)c4)cc3)CC2)cc1OC	1.145
CCCCc1c(CCC)c(=N)c2ccccc2n1C.I	0.7821
COc1ccc(-c2c(C)nn3c(N)c(C#N)cnc23)cc1OC	0.831
CCOc1ccc(Nc2c3ccccc3nc3ccccc23)cc1.Cl	1
CN(C)c1ccc(C(O)(c2ccc(N(C)C)cc2)c2ccc(N(C)C)cc2)cc1 [METHYLROSANILINE]	1.127
COc1ccc(C(O)(CCC(C)C)C(CN2CCOCC2)c2ccc(Cl)cc2)cc1.Cl (stereo unspecified)	1.06
COc1ccc2c(c1)C1(Nc3ccccc3-c3nc4ccccc4n31)C(=O)N2 (stereo unspecified)	0.9667
CCOc1ccc(CCNC(=O)c2cccs2)cc1OCC	1.073
COc1ccc(CCN2C(=O)c3[nH]nc(-c4cc(Cl)c(C)cc4O)c3C2c2ccccc2F)cc1 (stereo unspecified)	0.7742
CC(C)(C)c1ccc(C2CC3=Nc4ccccc4N(C(=O)c4ccccc4Cl)C(c4ccc(F)cc4)C3=C(O)C2)cc1 (stereo unspecified)	1
CCCCCCc1cc(O)c2c3c(c(=O)oc2c1)CCC(C)C3 (stereo unspecified)	1.073
CCOC(=O)c1c[nH]c2c(CC)cccc2c1=O	0.8986
COc1ccc(-c2nonc2NC(=O)c2cccc(Cl)c2)cc1OC	0.9
CCOC(=O)c1cnc2ccc(OC)cc2c1NCc1ccccc1	0.7154
Cc1cc(N(C)C)nc(Nc2ccc(NC(=O)Nc3ccccc3)cc2)n1	1.017
CCOC(=O)c1ccc2nc(-c3ccccc3)cc(O)c2c1	0.3465
CCOc1cc2c(cc1OCC)C(c1cc(Cl)c(O)c(OCC)c1)NCC2 (stereo unspecified)	0.8824

Compound	Ratio
Cc1ccc(C)c(Cn2c(N3CCC(C(=O)NCc4cccs4)CC3)nc3ccccc32)c1	1
O=C(NC(c1ccccc1)c1ccc2cccnc2c1O)c1ccccc1 (stereo unspecified)	1.018
CC(C)(C)c1ccc2c(c1)CN(Cc1ccc(Cl)cc1)CO2	0.8966
COc1cc(CNCCc2ccc(Cl)cc2)cc(OC)c1O	0.9459
CCOc1cccc(C(=O)Nc2ccc(-c3nc4ccccc4[nH]3)cc2)c1	1.322
CCCc1c(C)nc2ccccc2c1O	0.9683
COc1ccc2c(c1)OC(O)(C(F)(F)C(F)(F)F)CC2=O (stereo unspecified)	0.9
CCc1ccc(Nc2cc(C)nc3nc(C)nn23)cc1	0.9802
COc1cccc(O)c1CN1CCC2(CCCN(Cc3ccc(F)cc3)C2)C1 (stereo unspecified)	0.8333
Fc1ccc2[nH]c3c(NCCCN4CCOCC4)ncnc3c2c1	0.8594
OC1=C2C(=Nc3ccccc3SC2c2ccccc2)c2ccccc21 (stereo unspecified)	1.213
O=C(Nc1ccc(C23CC4CC(CC(c5ccccc5)(C4)C2)C3)cc1)c1cccs1	0.9231
O=C(CCl)NCCOc1ccc(Cl)cc1Cl	1.041
Cc1ccc(Nc2nc(-c3ccccn3)cs2)cc1	0.7264
COc1cccc(NC(=O)Cn2c(C)c(C#N)c3ccccc32)c1	1.098
O=C(c1ccccc1F)N(Cc1ccc(Cl)cc1)c1ccccn1	0.7857
CCOc1cccc2sc(N(Cc3cccnc3)C(=O)C3CCCCC3)nc12	0.8788
CC(C)=CCN1CCC(C(=O)Nc2ccc(-c3nc4ccccc4[nH]3)cc2)CC1	0.8533
COc1ccc(-c2nc3cc(Cc4ccc5[nH]c(-c6ccc(OC)cc6)nc5c4)ccc3[nH]2)cc1	1.389
Cc1nc2ccccc2c(O)c1CC=C(Cl)Cl	1.066
O=C(Nc1ccc(N2CCN(Cc3ccccc3)CC2)cc1)c1cccs1.O=C(O)C(F)(F)F	0.8148
Oc1ccccc1CN1CCC2(CCCN(Cc3ccccc3F)C2)C1 (stereo unspecified)	0.9661

Compound	Ratio
CC1=C(CC(=O)c2cccc([N+](=O)[O-])c2)C(=O)c2ccccc2C1=O	1.085
CC(C)(C)c1ccc(O)c(CNC2CCCCC2)c1	0.8356
O=C(CSc1ccc2nnc(-c3cccc(F)c3)n2n1)Nc1ccc2c(c1)OCO2	0.7344
COc1ccc(Nc2nc(NCc3ccccc3)c3ccccc3n2)cc1	1.093
CCCc1c(C)nc2ccc(Br)cc2c1O	1
O=C(Nc1cccc(-c2nc3ccccc3[nH]2)c1)c1cccc(NC(=O)c2ccco2)c1	0.6407
Cc1sc(NC(=O)c2ccco2)c(C(c2cccnc2)N2CCC(Cc3ccccc3)CC2)c1C (stereo unspecified)	1.123
CCCCCCC(O)(c1ccc(F)cc1)C(CN1CCOCC1)c1ccccc1.Cl (stereo unspecified)	0.9077
CCN(CC)CCCNc1ccnc2cc3ccccc3cc12	0.9344
Cc1ccc(CSCc2ccc(C(=O)NC3CC3)o2)cc1	0.8621
COc1ccc(C(=O)Nc2ccc3nc(N4CCCCC4)cc(C)c3c2)cc1OC	0.7897
CC(Oc1ccc(NC(=O)c2cccs2)cc1)C(=O)c1ccc(Cl)cc1 (stereo unspecified)	1
OC1=C2C(=Nc3ccccc3SC2c2ccc(Br)cc2)c2ccccc21 (stereo unspecified)	1.068
CCCCCn1c(=N)n(CC(O)COc2cccc(C)c2)c2ccccc21.Cl (stereo unspecified)	1.128
COc1cc(C(=O)Nc2ccc(-c3nc4ccccc4[nH]3)cc2)cc(OC)c1OC	0.6522
CCn1c(CN2CCN(Cc3ccccc3)CC2)nc2cc(NC(=O)c3cccs3)ccc21	0.8481
c1ccc(Cn2c(N=Nc3c(Nc4ccccc4)ccc4ccccc34)nc3ccccc32)cc1	0.863
COc1ccc(OC)c(C2C3=C(CC(C)(C)CC3=O)N(c3ccc(Cl)c(Cl)c3)C3=C2C(=O)CC(C)(C)C3)c1	0.9277
CC1CCN(Cc2c(O)ccc3cc(-c4nc5ccccc5s4)c(=O)oc23)CC1	1.058
N=c1c2ccccc2nnn1-c1cccc(C(F)(F)F)c1	1.0625
CCOC(=O)C1=CN(C)C=C(C(=O)OCC)C1c1cc(Br)c(OCC)c(OC)c1	1.052
c1ccc(/C2=N/c3ccccc3/N=C(/c3ccccc3)c3ccccc32)cc1	0.807

Compound	Ratio
CN(C)c1ccc(C=Cc2nc(=O)c3ccccc3o2)cc1	0.8302
O=C(NNc1cc(N2CCCC2)nc(N2CCCC2)n1)c1ccccc1	0.9508
COCCN(C(=O)Cc1cccs1)C(C(=O)NCc1ccc(OC)cc1)c1ccc(C(C)C)cc1 (stereo unspecified)	0.8315
O=C(Nc1ccc(Br)cc1)Nc1cccc(Cl)c1	1.104
COc1ccc(C2c3ccc4ccccc4c3Oc3ncn(CCCN(C)C)c(=N)c32)cc1 (stereo unspecified)	1.078
Oc1ccc(Cl)cc1CNc1nc2ccccc2[nH]1	1.068
COc1ccc(-n2ccnc2SCC(=O)Nc2cc(C)ccc2C)c(OC)c1	0.75
CSc1ccccc1C(=O)Nc1nc(-c2ccccn2)cs1	0.8125
CCOc1cc(Cl)c(C(C)NC(=O)c2cccc(OC)c2)cc1OCC (stereo unspecified)	0.9259
COc1ccc(C(=O)NC(c2ccc(Cl)cc2Cl)c2cc(Cl)c3cccnc3c2O)cc1 (stereo unspecified)	0.9814
Br.CCN(CC)S(=O)(=O)c1ccc(-c2csc(Nc3ccc(C)c(C)c3)n2)cc1	0.8
COC(=O)c1ccc(C2C3=C(O)CC(c4ccc(F)cc4)CC3=Nc3ccccc3N2C(=O)c2ccccc2)cc1 (stereo unspecified)	0.9016
COc1cccc(-c2nn(C)c3sc(C(=O)NCCN4CCN(c5ccccc5F)CC4)cc23)c1	0.7703
CN(C)c1ccc(N2C(N)=NC(N)=NC2(C)C)cc1	0.7632
CCOC(=O)C1=C(c2ccccc2)N=c2sc(=Cc3cc(C)n(-c4ccc(F)cc4)c3C)c(=O)n2C1c1cccc(OC)c1OC (stereo unspecified)	0.7267
CCOc1ccccc1NC(=O)CN1CCN(C(=O)c2ccco2)CC1	0.906
Cc1cccc(Nc2nc(N)c3ccccc3n2)c1.Cl	0.9275
O=C(NC1CCN(Cc2ccccc2)CC1)c1cc(-c2cccnc2)nc2ccc(Cl)cc12	0.7184
